The text below walks through data of EP1144365B1 (TANABE SEIYAKU CO., LTD., priority 1998, dated 2000).

One experiment addresses T1, α4β1 integrin (Homo sapiens, UniProt P05556+P13612).
T1 construct: a T-cell line, Jurkat, known to express the α4β1 integrin; host or cells: Jurkat T-cell line
Nature of the experiment: Jurkat-Endothelial Cell Adhesion Assay (Jurkat EC). It counts as cell-based. The settings on record: Jurkat cell adhesion to IL-1 stimulated endothelial cell monolayers. As to the method: The following assay established the activity of the present compounds in inhibiting β1-mediated cell adhesion in a representative in vitro system. This assay measures the adhesive interactions of a T-cell line, Jurkat, known to express the α4β1 integrin, to endothelial monolayers in the presence of test compounds. The test compounds were added in increasing concentrations to T-cells and then the T-cell compound mixture was added to IL-1 stimulated endothelial cell monolayers. The plates were incubated, washed and the percentage of attached cells was quantitated.
Human umbilical vein endothelial cells were purchased from Clonetics (San Diego, CA.) at passage number 2. The cells were grown on 0.5% porcine skin gelatin pre-coated flasks (Sigma, St. Louis MO.) in EGM-UV media (Clonetics, San Diego, CA) supplemented with 10% fetal bovine serum. Cells are refed every 2-3 days reaching confluence by day 4 to 6. […] The endothelial cells are not used following passage 6.
The T-cell line Jurkat was obtained from American Type Tissue Culture Collection (Rockville, MD) and the cells were cultured in RPMI containing 10 % fetal calf serum. The cells were washed twice in Hank's Balanced Salt Solution (HBSS) and resuspended in Dulbecco's Minimal Eagle's Media (DMEM) containing 2.5 mg/ml Human Serum Albumin (HSA). Jurkat cells (1x10^6 cells/ml) were stained with 10 ng/ml BCECF-AM (Molecular Probes, Eugene, OR)) in HBSS without phenol red. The cells were loaded with BCECF for 60 minutes in the dark at 37°C, washed 2 times, and resuspended in DMEM-HSA solution.
Confluent endothelial monolayers, grown in 96-well tissue culture plates, were stimulated for 4 hr. at 37 °C with 0.1 ng/ml (∼50 U/ml) recombinant IL-1 (Amgen, Thousand Oaks, CA). Following this incubation, the monolayers were washed twice with HBSS and 0.1 ml of DMEM-HSA solution was added. Jurkat cells (5 x 10^5 cells) were combined with the appropriate concentration of the test compound and 0.1 ml of the Jurkat cell-compound mixture was added to the endothelial cell monolayers. Generally, 100, 20, 5 and 1.25 µM compound concentrations were tested. […] Following this incubation, the monolayers were washed twice with PBS containing 1 mM calcium chloride and 1 mM magnesium chloride' and the plates were read using a Millipore Cytofluor 2300 (Marlboro, MA.). Fluorescence in each well was measured as Arbitrary Fluorescence Units and percent adhesion in the absence of compound was adjusted to 100% and the % adhesion in the presence of compound was calculated. Monolayers were also fixed in 3% paraformaldehyde and evaluated microscopically to verify the adhesion. This procedure is a modification of a previously published method (Cardarelli et al., J. Biol. Chem. 269:18668-18673 (1994)).

The next experiment deals with T2, α4β1 (Homo sapiens, UniProt P05556+P13612).
T2 construct: 100 µl of Jurkat cells (2.5 x 10^6 cells/ml) in DMEM plus BSA; host or cells: Jurkat T-cell line
Nature of the experiment: Jurkat-CS-1 assay. In kind it is cell-based. Conditions: Jurkat cell adhesion to immobilized CS-1 derived peptide. The method, then: The CS-1 derived peptide, CLHPGEILDVPST, and the scrambled control peptide, CLHGPIELVSDPT, were synthesized on a Beckman 990 synthesizer using t-Boc methodology. The peptides were immobilized onto microtiter plates using the heterobifunctional crosslinker 3-(2-pyridyldithio)propionic acid N-hydroxysuccinimide ester (SPDP) as reported by Pierschbacher et al., Proc. Natl. Acad. USA, 80:1224-1227 (1983). Microtiter plates were coated with 20 µg/ml HSA for 2 hr. at room temperature, washed once with PBS and derivatized with 10 µg/ml SPDP for 1 hr. After washing, 100 µl of a 100 µg/ml cysteine containing peptide solution which had been recently dissolved was added to the wells and allowed to crosslink to the plates overnight at 4 °C. Unbound peptide was removed from plates by washing with PBS. To block non-reacted sites, the plates are coated with 100 µl of a 2.5 mg/ml BSA solution in PBS for 1 hr. at 37 °C. 100 µl of Jurkat cells (2.5 x 10^6 cells/ml) in DMEM plus BSA (2.5 mg/ml) was mixed with an appropriate concentration of the compound to be tested and the mixture was added to peptide coated dishes and incubated for 1 hr. at 37 °C. Generally 100, 20, 5 and 1.25 µM concentrations of the compound were tested.
Following this incubation the plates were washed once with PBS and the attached cells were fixed with 3% paraformaldehyde in PBS and stained with 0.5% toluidine blue in 3.7% formaldehyde. The cells were stained overnight at room temperature and the optical density at 590 nm of toluidine blue stained cells was determined using a vertical pathway spectrophotometer to quantitate attachment (VMAX Kinetic Microplate Reader, Molecular Devices, Menlo Park, CA). This procedure is a modification of a previously published method (Cardarelli et al, J. Biol. Chem., 269:18668-18673 (1994) and Cardarelli et al, Proc. Natl. Acad. Sci. USA, 83:2647-2651 (1986)).

T1 sequence (P13612 34-1032): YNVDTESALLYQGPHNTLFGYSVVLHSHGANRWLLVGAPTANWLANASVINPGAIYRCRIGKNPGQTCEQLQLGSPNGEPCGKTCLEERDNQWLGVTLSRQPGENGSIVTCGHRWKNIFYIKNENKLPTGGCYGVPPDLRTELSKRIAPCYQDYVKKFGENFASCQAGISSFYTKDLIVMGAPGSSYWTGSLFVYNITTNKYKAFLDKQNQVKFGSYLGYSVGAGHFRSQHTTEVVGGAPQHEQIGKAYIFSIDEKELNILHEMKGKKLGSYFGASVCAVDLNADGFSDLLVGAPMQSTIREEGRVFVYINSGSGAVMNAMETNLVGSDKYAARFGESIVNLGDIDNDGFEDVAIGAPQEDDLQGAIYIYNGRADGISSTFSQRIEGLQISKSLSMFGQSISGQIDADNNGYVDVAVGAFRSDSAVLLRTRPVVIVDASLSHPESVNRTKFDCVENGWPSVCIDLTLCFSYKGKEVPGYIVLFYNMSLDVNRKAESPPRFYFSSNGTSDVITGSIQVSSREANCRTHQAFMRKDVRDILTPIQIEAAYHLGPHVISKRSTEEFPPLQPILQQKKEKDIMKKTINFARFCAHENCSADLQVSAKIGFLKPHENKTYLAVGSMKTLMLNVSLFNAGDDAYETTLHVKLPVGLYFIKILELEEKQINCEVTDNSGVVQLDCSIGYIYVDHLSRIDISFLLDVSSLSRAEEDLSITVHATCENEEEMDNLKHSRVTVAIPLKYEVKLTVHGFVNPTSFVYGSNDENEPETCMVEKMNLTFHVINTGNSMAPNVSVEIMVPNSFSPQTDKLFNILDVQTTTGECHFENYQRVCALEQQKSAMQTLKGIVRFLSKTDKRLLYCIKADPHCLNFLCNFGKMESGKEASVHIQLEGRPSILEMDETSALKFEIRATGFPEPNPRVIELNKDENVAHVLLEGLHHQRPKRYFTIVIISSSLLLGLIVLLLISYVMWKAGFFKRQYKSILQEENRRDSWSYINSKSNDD
T1 sequence (P05556 21-798): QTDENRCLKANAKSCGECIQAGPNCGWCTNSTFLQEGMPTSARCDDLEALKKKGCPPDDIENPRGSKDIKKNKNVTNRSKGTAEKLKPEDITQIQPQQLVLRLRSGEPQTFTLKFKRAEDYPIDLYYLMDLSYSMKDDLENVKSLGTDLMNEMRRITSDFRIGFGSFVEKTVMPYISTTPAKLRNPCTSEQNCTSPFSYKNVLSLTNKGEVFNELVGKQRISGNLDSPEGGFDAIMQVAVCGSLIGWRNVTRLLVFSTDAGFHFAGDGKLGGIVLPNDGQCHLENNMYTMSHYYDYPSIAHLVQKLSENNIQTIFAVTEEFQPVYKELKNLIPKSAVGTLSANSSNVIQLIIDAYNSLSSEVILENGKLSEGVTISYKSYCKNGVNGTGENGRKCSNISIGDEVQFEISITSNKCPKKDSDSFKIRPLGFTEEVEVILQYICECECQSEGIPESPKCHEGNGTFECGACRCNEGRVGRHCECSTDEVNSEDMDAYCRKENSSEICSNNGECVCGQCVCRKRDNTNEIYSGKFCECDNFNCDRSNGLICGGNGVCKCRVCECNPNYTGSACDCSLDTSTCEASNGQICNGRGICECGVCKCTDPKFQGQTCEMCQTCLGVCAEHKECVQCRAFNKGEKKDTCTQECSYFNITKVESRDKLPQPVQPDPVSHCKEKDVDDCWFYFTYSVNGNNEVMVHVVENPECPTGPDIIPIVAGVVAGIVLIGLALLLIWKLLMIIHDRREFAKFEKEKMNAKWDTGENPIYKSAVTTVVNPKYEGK
T2 sequence (P13612 34-1032): as the sequence (P13612 34-1032) above
T2 sequence (P05556 21-798): as the sequence (P05556 21-798) above

A word on the IC50: it is the point on the concentration scale where inhibition reaches its midpoint. Read a low IC50 as greater potency. In the case of `O=C(NC1(C(=O)N[C@@H](Cc2ccc(NC(=O)c3c(Cl)cccc3Cl)cc2)C(=O)O)CC2CCC1C2)c1cc(O)c2ccccc2n1` (stereo partly drawn) [Example 73], the IC50 fell in the range of 800 to 5000 nM against α4β1 integrin and 500 to 1000 nM at α4β1.

As for `O=C(NC1(C(=O)N[C@@H](Cc2ccc(NC(=O)c3c(Cl)cccc3Cl)cc2)C(=O)O)CC2CCC1C2)c1cc(C(=O)O)[nH]n1` (stereo partly drawn) [Example 74], the IC50 at α4β1 integrin was in the range of 800 to 5000 nM; against α4β1 it was 80 to 500 nM.

`O=C(Nc1ccc(C[C@H](NC(=O)C2(NC(=O)C3NC(C(=O)O)CS3)CC3CCC2C3)C(=O)O)cc1)c1c(Cl)cccc1Cl` (stereo partly drawn) [Example 75]: the values for the IC50 against α4β1 integrin and against α4β1 were no more than 800 nM and 80 to 500 nM, respectively.

In the case of `O=C(NC1(C(=O)N[C@@H](Cc2ccc(NC(=O)c3c(Cl)cccc3Cl)cc2)C(=O)O)CC2CCC1C2)c1ccc([N+](=O)[O-])o1` (stereo partly drawn) [Example 76], the IC50 at α4β1 integrin lay in the range of 800 to 5000 nM; on α4β1 it was 80 to 500 nM.

As for `O=C(Nc1ccc(C[C@H](NC(=O)C2(NC(=O)C3CCCO3)CC3CCC2C3)C(=O)O)cc1)c1c(Cl)cccc1Cl` (stereo partly drawn) [Example 77], the half-maximal inhibitory concentration (IC50) at α4β1 integrin is no more than 800 nM; against α4β1, 80 to 500 nM.

For `O=C(Nc1ccc(C[C@H](NC(=O)C2(NC(=O)C3CCOC3)CC3CCC2C3)C(=O)O)cc1)c1c(Cl)cccc1Cl` (stereo partly drawn) [Example 78], the concentration for half-maximal inhibition (IC50) at α4β1 integrin was no more than 800 nM; at α4β1 it was 80 to 500 nM.

As for `O=C(NC1CCCCC1C(=O)NC(Cc1ccc(NC(=O)c2c(Cl)cccc2Cl)cc1)C(=O)O)c1cccnc1` (stereo not drawn) [Example 79], the IC50 is 800 to 5000 nM at α4β1 integrin and 80 to 500 nM at α4β1.

As to `O=C(O)c1ccc(C(=O)NC2CCCCC2C(=O)NC(Cc2ccc(NC(=O)c3c(Cl)cccc3Cl)cc2)C(=O)O)nc1` (stereo not drawn) [Example 81], the results for the IC50 on α4β1 integrin and against α4β1 were 800 to 5000 nM and 80 to 500 nM, respectively.

With `O=C(NC1CCCCC1C(=O)NC(Cc1ccc(NC(=O)c2c(Cl)cccc2Cl)cc1)C(=O)O)c1cc(O)c2ccccc2n1` (stereo not drawn) [Example 82], the IC50 against α4β1 integrin was no more than 800 nM; at α4β1 it was 80 to 500 nM.

As to `O=C(NC1CCCCC1C(=O)NC(Cc1ccc(NC(=O)c2c(Cl)cccc2Cl)cc1)C(=O)O)c1cc(C(=O)O)[nH]n1` (stereo not drawn) [Example 83], the IC50 against α4β1 integrin was no more than 800 nM; on α4β1, no more than 80 nM.

`O=C(Nc1ccc(CC(NC(=O)C2CCCCC2NC(=O)C2NC(C(=O)O)CS2)C(=O)O)cc1)c1c(Cl)cccc1Cl` (stereo not drawn) [Example 84]: the IC50 was no more than 800 nM at α4β1 integrin and 80 to 500 nM at α4β1.

In the case of `O=C(NC1CCCCC1C(=O)NC(Cc1ccc(NC(=O)c2c(Cl)cccc2Cl)cc1)C(=O)O)c1ccc([N+](=O)[O-])o1` (stereo not drawn) [Example 85], the IC50 against α4β1 integrin was no more than 800 nM; against α4β1, no more than 80 nM.

As for `O=C(Nc1ccc(CC(NC(=O)C2CCCCC2NC(=O)C2CCCO2)C(=O)O)cc1)c1c(Cl)cccc1Cl` (stereo not drawn) [Example 86], the concentration for half-maximal inhibition (IC50) is no more than 800 nM on α4β1 integrin and no more than 80 nM on α4β1.

In the case of `O=C(Nc1ccc(CC(NC(=O)C2CCCCC2NC(=O)C2CCOC2)C(=O)O)cc1)c1c(Cl)cccc1Cl` (stereo not drawn) [Example 87], the IC50 against α4β1 integrin was no more than 800 nM; on α4β1 it was 80 to 500 nM.

With `CC(=O)[C@H]1C[C@@H](CC(=O)N[C@@H](Cc2ccc(NC(=O)c3c(Cl)cccc3Cl)cc2)C(=O)O)C1(C)C` [Example 88, (1S-cis)-N-[(3-Acetyl-2,2-dimethylcyclobutyl)acetyl]-4-[(2,6-dichlorobenzoyl)amino]-L-phenylalanine], the figures for the IC50 against α4β1 integrin and against α4β1 were 5000 to 10000 nM and 500 to 1000 nM, respectively.

Take `CC(O)[C@H]1C[C@@H](CC(=O)N[C@@H](Cc2ccc(NC(=O)c3c(Cl)cccc3Cl)cc2)C(=O)O)C1(C)C` (stereo partly drawn) [Example 89, [1S-(1α,3α)]-4-[(2,6-Dichlorobenzoyl)amino]-N-[[3-(1-hydroxyethyl)-2,2-dimethylcyclobutyl]acetyl]-L-phenylalanine]: the half-maximal inhibitory concentration (IC50) on α4β1 integrin lay in the range of 5000 to 10000 nM; against α4β1, 500 to 1000 nM.

In the case of `CC(=O)[C@@H]1C[C@H](CC(=O)N[C@@H](Cc2ccc(NC(=O)c3c(Cl)cccc3Cl)cc2)C(=O)O)C1(C)C` [Example 91, (1R-cis)-N-[(3-Acetyl-2,2-dimethylcyclobutyl)acetyl]-4-[(2,6-dichlorobenzoyl)amino]-L-phenylalanine], the half-inhibitory concentration (IC50) lay within 800 to 5000 nM at α4β1 integrin and 500 to 1000 nM against α4β1.

For the compound `CC1(C)[C@@H](CC(=O)N[C@@H](Cc2ccc(NC(=O)c3c(Cl)cccc3Cl)cc2)C(=O)O)C[C@H]1C(=O)O` [Example 93, (1R-cis)-N-[(3-Carboxy-2,2-dimethylcyclobutyl)acetyl]-4-[(2,6-dichlorobenzoyl)amino]-L-phenylalanine], the IC50 on α4β1 integrin lay within 800 to 5000 nM; against α4β1, 80 to 500 nM.

In the case of `CC1(C)[C@@H](C(=O)O)C[C@@H]1C(=O)N[C@@H](Cc1ccc(OCc2c(Cl)cccc2Cl)cc1)C(=O)O` [Example 94, (1S-trans)-N-[(3-Carboxy-2,2-dimethylcyclobutyl)carbonyl]-4-[(2,6-dichlorophenyl)methoxy]-L-phenylalanine], the half-inhibitory concentration (IC50) on α4β1 integrin was no more than 800 nM; against α4β1 it was 80 to 500 nM.

As for `CC(=O)[C@H]1C[C@H](C(=O)N[C@@H](Cc2ccc(NC(=O)c3c(Cl)cccc3Cl)cc2)C(=O)O)C1(C)C` [Example 96, (1S-trans)-N-[(3-Acetyl-2,2-dimethylcyclobutyl)carbonyl]-4-[(2,6-dichlorobenzoyl)amino]-L-phenylalanine], the values for the IC50 on α4β1 integrin and on α4β1 were no more than 800 nM and no more than 80 nM, respectively.

Take `CC(=O)[C@@H]1C[C@H](C(=O)N[C@@H](Cc2ccc(NC(=O)c3c(Cl)cccc3Cl)cc2)C(=O)O)C1(C)C` [Example 97, (1S-cis)-N-[(3-Acetyl-2,2-dimethylcyclobutyl)carbonyl]-4-[(2,6-dichlorobenzoyl)amino)-L-phenylalanine]: the half-inhibitory concentration (IC50) was no more than 800 nM against α4β1 integrin and no more than 80 nM at α4β1.

Take `CC1(C)[C@@H](C(=O)O)C[C@@H]1C(=O)N[C@@H](Cc1ccc(NC(=O)c2c(Cl)cccc2Cl)cc1)C(=O)O` [Example 98, (1S-trans)-N-[(3-Carboxy-2,2-dimethylcyclobutyl)carbonyl]-4-[(2,6-dichlorobenzoyl)amino]-L-phenylalanine]: the IC50 is no more than 800 nM against α4β1 integrin and 80 to 500 nM against α4β1.

`CC1(C)[C@@H](C(=O)N[C@@H](Cc2ccc(NC(=O)c3c(Cl)cccc3Cl)cc2)C(=O)O)C[C@H]1C(=O)O` [Example 99, (1S-cis)-N-[(3-Carboxy-2,2-dimethylcyclobutyl)carbonyl]-4-[(2,6-dichlorobenzoyl)amino]-L-phenylalanine]: the IC50 against α4β1 integrin was 800 to 5000 nM; against α4β1, 80 to 500 nM.

For `CC(=O)[C@@H]1C[C@@H](C(=O)N[C@@H](Cc2ccc(NC(=O)c3c(Cl)cccc3Cl)cc2)C(=O)O)C1(C)C` [Example 100, (1R-trans)-N-[(3-Acetyl-2,2-dimethylcyclobutyl]carbonyl]-4-[(2,6-dichlorobenzoyl)amino]-L-phenylalanine], the concentration for half-maximal inhibition (IC50) at α4β1 integrin lay within 800 to 5000 nM; against α4β1, 80 to 500 nM.
